Where two headings read alike, the source gives them in different places. Marks after values point to notes of the source that are not given here.
Experiments:
MRSA BAA-1707 = assay: MIC broth microdilution, MRSA BAA-1707; type: cell-based, Staphylococcus aureus; conditions: for MIC: read-out: MIC MRSA BAA-1707; for MIC MRSA 1707: Table 4
Experimental: (§1) The minimum inhibitory concentration (MIC) for each tested compound was determined by the broth microdilution method as recommended by the Clinical and Laboratory Standards Institute (CLSI). In a 96-well plate, eleven two-fold serial dilutions of each compound were made in a final volume of 100 μL Luria Broth. Each well was inoculated with ˜10^5 bacterial cells at the initial time of incubation, prepared from a fresh log phase culture (OD600 of 0.5 to 1.0 depending on bacterial strain). […] (MIC values were supported by spectrophotometric readings at OD600). DMSO served as our vehicle and negative control in each microdilution MIC assay. DMSO was serially diluted with a top concentration of 1% v/v.
(§2) Each well was inoculated with ˜10^5 bacterial cells at the initial time of incubation, prepared from a fresh log phase culture (OD600 of 0.5 to 1.0 depending on bacterial strain). […] The concentration range tested for each compound during this study was 0.10 to 100 μM. DMSO served as our vehicle and negative control in each microdilution MIC assay. DMSO was serially diluted with a top concentration of 1% v/v. All MIC values were obtained from a minimum of three independent experiments.

[1] = system: Klebsiella pneumoniae (ATCC 13883); assay: MIC broth microdilution, K. pneumoniae 13883; type: cell-based; conditions: Table 4
Experimental: (§3) The minimum inhibitory concentration (MIC) for each tested compound was determined by the broth microdilution method as recommended by the Clinical and Laboratory Standards Institute (CLSI). In a 96-well plate, eleven two-fold serial dilutions of each compound were made in a final volume of 100 μL Luria Broth. Each well was inoculated with ˜10^5 bacterial cells at the initial time of incubation, prepared from a fresh log phase culture (OD600 of 0.5 to 1.0 depending on bacterial strain). The MIC was defined as the lowest concentration of compound that prevented bacterial growth after incubating 16 to 18 hours at 37° C. (MIC values were supported by spectrophotometric readings at OD600). DMSO served as our vehicle and negative control in each microdilution MIC assay. DMSO was serially diluted with a top concentration of 1% v/v.
as §3, with “for each compound was” for “for each tested compound was”, “Standards Institute (CLSI).^6 In a” for “Standards Institute (CLSI). In a”, “concentration of test compound that” for “concentration of compound that”, “37° C. The concentration range tested for each compound during this study was 0.10 to 100 μM. DMSO served” for “37° C. (MIC values were supported by spectrophotometric readings at OD600). DMSO served”, “1% v/v. All MIC values were obtained from a minimum of three independent experiments.” for “1% v/v.”

[2] = system: methicillin-sensitive Staphylococcus aureus ATCC 29213; assay: MIC broth microdilution, S. aureus 29213; type: cell-based
Experimental: as §1, §2

[3] = system: vancomycin-resistant Enterococcus faecium (VRE strain ATCC 700221); assay: MIC broth microdilution, VRE 700221; type: cell-based; conditions: for MIC VRE 700221: Table 4
Experimental: as §3
as §3, with “for each compound was” for “for each tested compound was”, “Standards Institute (CLSI).^6 In a” for “Standards Institute (CLSI). In a”, “concentration of test compound that” for “concentration of compound that”, “37° C. The concentration range tested for each compound during this study was 0.10 to 100 μM. DMSO served” for “37° C. (MIC values were supported by spectrophotometric readings at OD600). DMSO served”, “1% v/v. All MIC values were obtained from a minimum of three independent experiments.” for “1% v/v.”

[4] = system: Escherichia coli clinical isolate (UAEC-1); assay: MIC broth microdilution, UAEC-1; type: cell-based; conditions: Table 4
Experimental: as §3
as §3, with “for each compound was” for “for each tested compound was”, “Standards Institute (CLSI).^6 In a” for “Standards Institute (CLSI). In a”, “concentration of test compound that” for “concentration of compound that”, “37° C. The concentration range tested for each compound during this study was 0.10 to 100 μM. DMSO served” for “37° C. (MIC values were supported by spectrophotometric readings at OD600). DMSO served”, “1% v/v. All MIC values were obtained from a minimum of three independent experiments.” for “1% v/v.”

[5] = system: methicillin-resistant Staphylococcus epidermidis (MRSE strain ATCC 35984); assay: MIC broth microdilution, MRSE 35984; type: cell-based; conditions: for MIC MRSE 35984: Table 4
Experimental: as §3
as §3, with “for each compound was” for “for each tested compound was”, “Standards Institute (CLSI).^6 In a” for “Standards Institute (CLSI). In a”, “concentration of test compound that” for “concentration of compound that”, “37° C. The concentration range tested for each compound during this study was 0.10 to 100 μM. DMSO served” for “37° C. (MIC values were supported by spectrophotometric readings at OD600). DMSO served”, “1% v/v. All MIC values were obtained from a minimum of three independent experiments.” for “1% v/v.”

[6] = system: Acinetobacter baumannii (ATCC 1794); assay: MIC broth microdilution, A. baumannii 1794; type: cell-based; conditions: for MIC A. bau. 1794: Table 4
Experimental: as §3
as §3, with “for each compound was” for “for each tested compound was”, “Standards Institute (CLSI).^6 In a” for “Standards Institute (CLSI). In a”, “concentration of test compound that” for “concentration of compound that”, “37° C. The concentration range tested for each compound during this study was 0.10 to 100 μM. DMSO served” for “37° C. (MIC values were supported by spectrophotometric readings at OD600). DMSO served”, “1% v/v. All MIC values were obtained from a minimum of three independent experiments.” for “1% v/v.”

[7] = system: Pseudomonas aeruginosa (PAO1); assay: MIC broth microdilution, PAO1; type: cell-based
Experimental: as §3
as §3, with “for each compound was” for “for each tested compound was”, “Standards Institute (CLSI).^6 In a” for “Standards Institute (CLSI). In a”, “concentration of test compound that” for “concentration of compound that”, “37° C. The concentration range tested for each compound during this study was 0.10 to 100 μM. DMSO served” for “37° C. (MIC values were supported by spectrophotometric readings at OD600). DMSO served”, “1% v/v. All MIC values were obtained from a minimum of three independent experiments.” for “1% v/v.”

[8] = system: methicillin-resistant Staphylococcus aureus MRSA-2 (clinical isolate); assay: MIC broth microdilution, MRSA-2; type: cell-based; conditions: for MIC: read-out: MIC MRSA-2
Experimental: as §3
as §3, with “for each compound was” for “for each tested compound was”, “Standards Institute (CLSI).^6 In a” for “Standards Institute (CLSI). In a”, “concentration of test compound that” for “concentration of compound that”, “37° C. The concentration range tested for each compound during this study was 0.10 to 100 μM. DMSO served” for “37° C. (MIC values were supported by spectrophotometric readings at OD600). DMSO served”, “1% v/v. All MIC values were obtained from a minimum of three independent experiments.” for “1% v/v.”

[9] = system: SA-147 (clinical isolate); assay: MIC broth microdilution, SA-147; type: cell-based, Staphylococcus aureus
Experimental: as §1, §2

[10] = system: human red blood cells (hRBC); assay: Hemolysis of red blood cells; type: cell-based
Experimental: The washing was repeated three times with the buffer. In a 96-well plate, test compounds were added to the buffer from DMSO stocks. […] The plate was then incubated for 1 hour at 37° C. After incubation, the plate was centrifuged for 5 minutes at 3,500 rpm. Then 80 μL of the supernatant was transferred to another 96-well plate and the optical density (OD) was read at 405 nm. DMSO served as our negative control (0% hemolysis) while Triton X served as our positive control (100% hemolysis). […] All reported data correspond to three independent experiments. Ten-point dose-response curves were generated in 96-well plates to determine 50% hemolysis (HC50 values) of red blood cells.
The washing was repeated three times with the buffer. In 96-well plate, the test compounds were added to the buffer. Then 50 μL of 2% of hRBCs in the buffer were added to the test plate to make the final concentrations ranging from 0.2 to 200 μM of each test compound. The plate was then incubated for 1 hour at 37° C. After incubation, the plate was centrifuged for 5 minutes at 3500 rpm and then 80 μL of the supernatant was transferred to another 96-well plate and the Optical Density (OD) was read at 405 nm. DMSO served as our negative control (0% haemolysis) and Triton X served as our positive control (100% haemolysis). The HC50 (concentration of test compound required to lyse red blood cells by 50%) was calculated by plotting the dose-response curve (not shown) with Graphpad Prism 6.0. All data were obtained from three independent haemolysis experiments.

[11] = system: SA-138 (clinical isolate); assay: MIC broth microdilution, SA-138; type: cell-based, Staphylococcus aureus
Experimental: as §1, §2

[12] = system: SA-129 (clinical isolate); assay: MIC broth microdilution, SA-129; type: cell-based, Staphylococcus aureus
Experimental: as §1, §2

[13] = system: SA-156 (clinical isolate); assay: MIC broth microdilution, SA-156; type: cell-based, Staphylococcus aureus
Experimental: as §1, §2

MRSA-2 biofilms = assay: Calgary Biofilm Device assay (MBC/MBEC), MRSA-2; type: cell-based, Staphylococcus aureus; conditions: Table 2A; CBD assay
Experimental: The lid of the Calgary device was then removed, washed and transferred to another 96-well plate containing 2-fold serial dilutions of the test compounds (the “challenge plate”). The total volume of media with compound in each well in the challenge plate is 150 μL. […] The lid was then removed from the challenge plate and MBC/MBEC values were determined using different final assays. […] The MBC values were determined as the concentration giving a lack of visible bacterial growth (i.e., turbidity). […] In select experiments, pegs from the Calgary device were removed from lead biofilm eradicators after final incubation, sonicated for 30 minutes in PBS and plated out to determine biofilm cell killing of lead biofilm-eradicating agents (i.e., colony forming unit per milliliter, CFU/mL).
Using a Calgary Biofilm Device, bacterial biofilms are established on pegs suspended to the bottom of a 96-well plate lid. Following biofilm establishment on lid pegs, lids are then transferred to new 96-well plates containing serial dilutions of test compound and allowed to incubate. After compound treatment, 96-well plate lids with pegs are once again transferred to 96-well plates containing fresh media. During this final phase of the assay, viable biofilms will grow and disperse planktonic cells into the media where they will grow and give a turbid well result. Conversely, wells that have no growth are a result of pegs that had eradicated bacterial biofilms. The lowest concentration at which no turbidity is observed is the minimum biofilm eradication concentration (MBEC). Using the Calgary Biofilm Device, both minimum biofilm eradication concentrations and minimum bactericidal concentrations (MBC) for planktonic bacterial can be determined using one assay from a single bacterial culture (FIG. 3A).

MRSA BAA-44 = assay: MIC broth microdilution, MRSA BAA-44; type: cell-based, Staphylococcus aureus
Experimental: as §1, §2

[14] = system: MRSA-1 (clinical isolate); assay: MIC broth microdilution, MRSA-1; type: cell-based, Staphylococcus aureus
Experimental: as §1, §2

SMILES: CCCCCCCCCCCCCCCCn1cc[n+](-c2ccc(Cl)cc2)c1C.[Br-] [Compound 6]
- MIC (MRSA BAA-1707; Table 1B): 3.13 µM
- MIC (MRSA BAA-1707; Table 3): 3.13 µM
- MIC MRSA 1707 (MRSA BAA-1707): 3.13 µM
- MIC K. pneu. 13883 [1]: 6.25 µM
- MIC ([2]; Table 1B): 3.13 µM
- MIC ([2]; Table 3): 3.13 µM
- MIC VRE 700221 [3]: 1.56 µM
- MIC UAEC-1 [4]: 6.25 µM
- MIC MRSE 35984 [5]: 1.17a micromolar
- MIC A. bau. 1794 [6]: 12.5 µM
- MIC PAO1 ([7]; Table 4): >100 µM
- MIC ([8]; Table 1B): 3.13 µM
- MIC ([8]; Table 3): 3.13 µM
- MIC MRSA-2 ([8]; Table 4): 3.13 µM

SMILES: CCCCCCCCCCCCCCCCn1c(C)[n+](Cc2ccccc2)c2ccccc21.[Br-] [Compound 25]
- MIC (MRSA BAA-1707; Table 1B): 12.5 µM
- MRSA BAA-1707 MIC (MRSA BAA-1707; Table 2A): 9.38^a μM
- MIC (MRSA BAA-1707; Table 3): 12.5 µM
- MIC MRSA 1707 (MRSA BAA-1707): 9.38a micromolar
- MIC ([9]; Table 1B): 6.25 µM
- MIC ([9]; Table 3): 6.25 µM
- HC50 ([10]; Table 1A): 10.4 µM
- RBC HC50 ([10]; Table 4, concentration required to lyse 50% of red blood cells): 10.4 µM
- MIC ([2]; Table 1B): 12.5 µM
- MIC ([2]; Table 3): 12.5 µM
- MIC ([11]; Table 1B): 6.25 µM
- MIC ([11]; Table 3): 6.25 µM
- MIC E. faecium VRE 700221 ([3]; Table 1A): 1.56 µM
- VRE MIC ([3]; Table 2A): 1.56 µM
- MIC VRE 700221 [3]: 1.56 µM
- MIC ([12]; Table 1B): 3.13 µM
- MIC ([12]; Table 3): 3.13 µM
- MIC ([13]; Table 1B): 12.5 µM
- MIC ([13]; Table 3): 12.5 µM
- MRSA-2 MBC (MRSA-2 biofilms): 250 µM
- MRSA-2 MBEC (MRSA-2 biofilms): 188 µM
- MIC (MRSA BAA-44; Table 1B): 12.5 µM
- MIC (MRSA BAA-44; Table 3): 12.5 µM
- MIC S. epidermidis MRSE 35984 ([5]; Table 1A): 3.13 µM
- MIC ([5]; Table 2A, read-out: MRSE 35984 MIC): 3.13 µM
- MIC MRSE 35984 [5]: 3.13 µM
- MIC A. baumannii 1794 ([6]; Table 1A, in µM): >100
- MIC A. bau. 1794 [6]: >100 µM
- MIC PAO1 ([7]; Table 1A): > 100 µM
- MIC PAO1 ([7]; Table 4): >100 µM
- MIC MRSA-2 ([8]; Table 1A): 3.13 µM
- MIC ([8]; Table 1B): 12.5 µM
- MRSA-2 MIC ([8]; Table 2A): 3.13 µM
- MIC ([8]; Table 3): 3.13 µM
- MIC MRSA-2 ([8]; Table 4): 3.13 µM
- MIC ([14]; Table 1B): 12.5 µM
- MIC ([14]; Table 3): 12.5 µM

Source: patent US11419335B2, “N-arylated analogues and uses thereof” (University of Florida Research Foundation, Incorporated, priority 2016, dated 2022)
